For one test, the system named is HCV Huh-luc/neo-ET replicon cells. The experiment in a line: Luciferase-Based HCV Replicon Assay (EC50 (1b)). Type of test: cell-based. Particulars: 72 hours exposure, luciferase activity. In outline:
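EC50 (1b) derived from % inhibition of luciferase signal relative to untreated cells, background set by 100 nM BILN-2061 (protease inhibitor). Triplicate dose series added to replicon cells 24 h post-seeding; luminescence measured after 72 h compound exposure.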
In general terms: Replicon systems follow genome replication, usually without infectious particles.
Usually EC50 stands for the concentration giving half of the maximal effect. For `CC(C)(C)CCN1C(=O)C(C2=NS(=O)(=O)c3c(CNS(C)(=O)=O)csc3N2)=C(O)C2C3CCC(C4CC43)C21` (racemic) [Example 25, (rac-di-exo)-N-{3-[3-(3,3-Dimethyl-butyl)-6-hydroxy-4-oxo-3-aza-tetracyclo[6.3.2.0^2,7.0^9,11]tridec-5-en-5-yl]-1,1-dioxo-1,4-dihydro-1λ^6-thieno[2,3-e][1,2,4]thiadiazin-7-ylmethyl}-methanesulfonamide], the EC50 was no more than 5 nM.

The test is the same for the next values; noted with them: Hepatitis C virus, 72 hours exposure, luciferase activity.
Turning to `CS(=O)(=O)NCc1csc2c1S(=O)(=O)N=C(C1=C(O)[C@@H]3[C@H]4CC[C@H](C4)[C@@H]3N(Cc3ccc(F)cc3Cl)C1=O)N2` [Example 94, N-{3-[(1R,2S,7R,8S)-3-(2-Chloro-4-fluoro-benzyl)-6-hydroxy-4-oxo-3-aza-tricyclo[6.2.1.0^2,7]undec-5-en-5-yl]-1,1-dioxo-1,4-dihydro-1λ^6-thieno[2,3-e][1,2,4]thiadiazin-7-ylmethyl}-methanesulfonamide], the concentration giving a half-maximal response (EC50) fell in the range of 20 to 100 nM. `CC(C)CCC1(C)CN(C2CCCC2)C(=O)C(C2=NS(=O)(=O)c3c(CNS(C)(=O)=O)csc3N2)=C1O` (racemic) [Example 21, rac-N-{3-[1-Cyclopentyl-4-hydroxy-5-methyl-5-(3-methyl-butyl)-2-oxo-1,2,5,6-tetrahydro-pyridin-3-yl]-1,1-dioxo-1,4-dihydro-1λ^6-thieno[2,3-e][1,2,4]thiadiazin-7-ylmethyl}-methanesulfonamide] showed an EC50 of 100 to 1000 nM. Still for that read-out and setting: in the case of `CC(C)CCN1C(=O)C(C2=NS(=O)(=O)c3c(CNS(C)(=O)=O)csc3N2)=C(O)C2C3C=CC(C3)C21` (racemic) [Example 66, (rac-di-exo)-N-{3-[6-Hydroxy-3-(3-methyl-butyl)-4-oxo-3-aza-tricyclo[6.2.1.0^2,7]undeca-5,9-dien-5-yl]-1,1-dioxo-1,4-dihydro-1λ^6-thieno[2,3-e][1,2,4]thiadiazin-7-ylmethyl}-methanesulfonamide] it was 5 to 20 nM; in that of `CS(=O)(=O)NCc1csc2c1S(=O)(=O)N=C(C1=C(O)C3C4C=CC(C4)C3NC1=O)N2` (racemic) [Example 84, (rac-di-exo)-N-[3-(6-Hydroxy-4-oxo-3-aza-tricyclo[6.2.1.0^2,7]undeca-5,9-dien-5-yl)-1,1-dioxo-1,4-dihydro-1λ^6-thieno[2,3-e][1,2,4]thiadiazin-7-ylmethyl]-methanesulfonamide], greater than 1000 nM; in that of `Cc1cc(CN2C(=O)C(C3=NS(=O)(=O)c4c(CNS(C)(=O)=O)csc4N3)=C(O)C3CCCCCC32)ccc1F` (racemic) [Example 139, (rac-cis)-N-{3-[1-(4-Fluoro-3-methyl-benzyl)-4-hydroxy-2-oxo-2,4a,5,6,7,8,9,9a-octahydro-1H-cyclohepta[b]pyridin-3-yl]-1,1-dioxo-1,4-dihydro-1λ^6-thieno[2,3-e][1,2,4]thiadiazin-7-ylmethyl}-methanesulfonamide], greater than 1000 nM. Still for that read-out and setting: as for `CS(=O)(=O)NCc1csc2c1S(=O)(=O)N=C(C1=C(O)C3CCCCCC3N(Cc3ccc(F)c(F)c3)C1=O)N2` (racemic) [Example 137, (rac-cis)-N-{3-[1-(3,4-Difluoro-benzyl)-4-hydroxy-2-oxo-2,4a,5,6,7,8,9,9a-octahydro-1H-cyclohepta[b]pyridin-3-yl]-1,1-dioxo-1,4-dihydro-1λ^6-thieno[2,3-e][1,2,4]thiadiazin-7-ylmethyl}-methanesulfonamide], the figure is 100 to 1000 nM; as for `CC(C)CCN1C(=O)C(C2=NS(=O)(=O)c3c(CNS(C)(=O)=O)csc3N2)=C(O)C2C3CCC(O3)C21` (racemic) [Example 63, (rac-di-exo)-N-{3-[6-Hydroxy-3-(3-methyl-butyl)-4-oxo-11-oxa-3-aza-tricyclo[6.2.1.0^2,7]undec-5-en-5-yl]-1,1-dioxo-1,4-dihydro-1λ^6-thieno[2,3-e][1,2,4]thiadiazin-7-ylmethyl}-methanesulfonamide], 20 to 100 nM; as for `CS(=O)(=O)NCc1csc2c1S(=O)(=O)N=C(C1=C(O)C3C4CCC(O4)C3NC1=O)N2` (racemic) [Example 83, (rac-di-exo)-N-[3-(6-Hydroxy-4-oxo-11-oxa-3-aza-tricyclo[6.2.1.0^2,7]undec-5-en-5-yl)-1,1-dioxo-1,4-dihydro-1λ^6-thieno[2,3-e][1,2,4]thiadiazin-7-ylmethyl]-methanesulfonamide], greater than 1000 nM.

Compound `CS(=O)(=O)NCc1csc2c1S(=O)(=O)N=C(C1=C(O)[C@@H]3[C@@H]4CC[C@@H](C4)[C@@H]3N(Cc3cc(F)c(F)c(F)c3)C1=O)N2` [Example 57, N-{3-[(1S,2S,7R,8R)-6-Hydroxy-4-oxo-3-(3,4,5-trifluoro-benzyl)-3-aza-tricyclo[6.2.1.0^2,7]undec-5-en-5-yl]-1,1-dioxo-1,4-dihydro-1λ^6-thieno[2,3-e][1,2,4]thiadiazin-7-ylmethyl}-methanesulfonamide] had an EC50 of 5 to 20 nM. `CS(=O)(=O)NCc1csc2c1S(=O)(=O)N=C(C1=C(O)[C@@H]3[C@H]4CC[C@H](C4)[C@@H]3N(CCC3CCC3)C1=O)N2` [Example 26, N-{3-[(1R,2S,7R,8S)-3-(2-Cyclobutyl-ethyl)-6-hydroxy-4-oxo-3-aza-tricyclo[6.2.1.0^2,7]undec-5-en-5-yl]-1,1-dioxo-1,4-dihydro-1λ^6-thieno[2,3-e][1,2,4]thiadiazin-7-ylmethyl}-methanesulfonamide] returned an EC50 of 20 to 100 nM.

`CS(=O)(=O)NCc1csc2c1S(=O)(=O)N=C(C1=C(O)[C@@H]3[C@H]4CC[C@H](C4)[C@@H]3N(C3CCCCC3)C1=O)N2` [Example 97, N-[3-((1R,2S,7R,8S)-3-Cyclohexyl-6-hydroxy-4-oxo-3-aza-tricyclo[6.2.1.0^2,7]undec-5-en-5-yl)-1,1-dioxo-1,4-dihydro-1λ^6-thieno[2,3-e][1,2,4]thiadiazin-7-ylmethyl]-methanesulfonamide] showed a half-maximal effective concentration (EC50) of 100 to 1000 nM. `CC(C)CCN1C(=O)C(C2=NS(=O)(=O)c3c(CNS(C)(=O)=O)csc3N2)=C(O)[C@@H]2C3CCC(CC3)[C@@H]21` [Example 71, N-{3-[(2S,7R)-6-Hydroxy-3-(3-methyl-butyl)-4-oxo-3-aza-tricyclo[6.2.2.0^2,7]dodec-5-en-5-yl]-1,1-dioxo-1,4-dihydro-1λ^6-thieno[2,3-e][1,2,4]thiadiazin-7-ylmethyl]-methanesulfonamide] showed an EC50 of 5 to 20 nM. The compound `CS(=O)(=O)NCc1csc2c1S(=O)(=O)N=C(C1=C(O)C3CCCCC3N(C3CCCCC3)C1=O)N2` (racemic) [Example 100, (rac-cis)-N-[3-(1-Cyclohexyl-4-hydroxy-2-oxo-1,2,4a,5,6,7,8,8a-octahydro-quinolin-3-yl)-1,1-dioxo-1,4-dihydro-1λ^6-thieno[2,3-e][1,2,4]thiadiazin-7-ylmethyl]-methanesulfonamide] returned a concentration for a half-maximal effect (EC50) of 100 to 1000 nM. `CS(=O)(=O)NCc1csc2c1S(=O)(=O)N=C(C1=C(O)C3CCCCCC3N(CC3CCCCC3)C1=O)N2` (racemic) [Example 105, (rac-cis)-N-[3-(1-Cyclohexylmethyl-4-hydroxy-2-oxo-2,4a,5,6,7,8,9,9a-octahydro-1H-cyclohepta[b]pyridin-3-yl)-1,1-dioxo-1,4-dihydro-1λ^6-thieno[2,3-e][1,2,4]thiadiazin-7-ylmethyl]-methanesulfonamide] yielded a half-maximal effective concentration (EC50) of 100 to 1000 nM. On to `CS(=O)(=O)NCc1csc2c1S(=O)(=O)N=C(C1=C(O)C3CCCCCC3N(Cc3ccc(F)cc3Cl)C1=O)N2` (racemic) [Example 121, (rac-cis)-N-{3-[1-(2-Chloro-4-fluoro-benzyl)-4-hydroxy-2-oxo-2,4a,5,6,7,8,9,9a-octahydro-1H-cyclohepta[b]pyridin-3-yl]-1,1-dioxo-1,4-dihydro-1λ^6-thieno[2,3-e][1,2,4]thiadiazin-7-ylmethyl}-methanesulfonamide], for which the EC50 is greater than 1000 nM. In the case of `CS(=O)(=O)NCc1csc2c1S(=O)(=O)N=C(C1=C(O)[C@@H]3[C@H]4CC[C@H](C4)[C@@H]3N(Cc3ccc(F)cc3F)C1=O)N2` [Example 49, N-{3-[(1R,2S,7R,8S)-3-(2,4-Difluoro-benzyl)-6-hydroxy-4-oxo-3-aza-tricyclo[6.2.1.0^2,7]undec-5-en-5-yl]-1,1-dioxo-1,4-dihydro-1λ^6-thieno[2,3-e][1,2,4]thiadiazin-7-ylmethyl}-methanesulfonamide], the EC50 was 20 to 100 nM.

The compound `CS(=O)(=O)NCc1csc2c1S(=O)(=O)N=C(C1=C(O)[C@@H]3[C@@H]4CC[C@@H](C4)[C@@H]3N(CCC3CC3)C1=O)N2` [Example 107, N-{3-[(1S,2S,7R,8R)-3-(2-Cyclopropyl-ethyl)-6-hydroxy-4-oxo-3-aza-tricyclo[6.2.1.0^2,7]undec-5-en-5-yl]-1,1-dioxo-1,4-dihydro-1λ^6-thieno[2,3-e][1,2,4]thiadiazin-7-ylmethyl}-methanesulfonamide] displayed an EC50 of 20 to 100 nM. `CS(=O)(=O)NCc1csc2c1S(=O)(=O)N=C(C1=C(O)C3CCCCCC3N(Cc3ccc(F)cc3F)C1=O)N2` (racemic) [Example 122, (rac-cis)-N-{3-[1-(2,4-Difluoro-benzyl)-4-hydroxy-2-oxo-2,4a,5,6,7,8,9,9a-octahydro-1H-cyclohepta[b]pyridin-3-yl]-1,1-dioxo-1,4-dihydro-1λ^6-thieno[2,3-e][1,2,4]thiadiazin-7-ylmethyl}-methanesulfonamide] gave a 50% effective concentration (EC50) greater than 1000 nM. Compound `COc1ccc(CN2C(=O)C(C3=NS(=O)(=O)c4c(CNS(C)(=O)=O)csc4N3)=C(O)C3CCCCC32)c(OC)c1` (racemic) [Example 78, (rac-cis)-N-{3-[1-(2,4-Dimethoxy-benzyl)-4-hydroxy-2-oxo-1,2,4a,5,6,7,8,8a-octahydro-quinolin-3-yl]-1,1-dioxo-1,4-dihydro-1λ^6-thieno[2,3-e][1,2,4]thiadiazin-7-ylmethyl}-methanesulfonamide] gave an EC50 greater than 1000 nM. Same read-out and setting: as for `CC(C)C1CC(O)=C(C2=NS(=O)(=O)c3c(CNS(C)(=O)=O)csc3N2)C(=O)N1Cc1ccc(F)cc1` (racemic) [Example 8, rac-N-{3-[1-(4-Fluoro-benzyl)-4-hydroxy-6-isopropyl-2-oxo-1,2,5,6-tetrahydro-pyridin-3-yl]-1,1-dioxo-1,4-dihydro-1λ^6-thieno[2,3-e][1,2,4]thiadiazin-7-ylmethyl}-methanesulfonamide], the figure is 20 to 100 nM.

These data come from US8222404B2, “[1,2,4]Thiadiazin-3-yl acetic acid compound and methods of making the acetic acid compound” (Anadys Pharmaceuticals, Inc., priority 2008, dated 2012).
